Source: US20130347134A1, “TRANSGENIC VON WILLEBRAND FACTOR ANIMALS AND USES THEREOF” (priority 2012, published 2013)
“Also recorded” adds a separate entry of the source.

Key:
[1] = tested on: murine platelet rich plasma; experiment: Ristocetin-induced platelet aggregation assay (RIPA), murine platelet rich plasma; assay type: cell-based, mouse
Experimental: In Ristocetin-induced platelet aggregation assays (RIPA), platelet GPIb a binding to wild type human VWF or mouse VWF was analyzed in the absence or presence of ristocetin as described previously (Inbal, et al., 1993). In this method, platelet rich plasma (PRP) is placed in a clear cuvette containing a stir bar and inserted into the aggregometer. Platelet aggregation is induced by the addition of ristocetin. […] In fact, only at concentrations of 2.5 mg/ml was there any evidence of murine platelet aggregation observed (about 30%, FIG. 10C).

human platelets [2] = experiment: Ex vivo platelet adhesion, parallel-plate flow chamber, human whole blood over surface-immobilized VWF or VWF-A1, 1600 s^-1; assay type: cell-based; conditions: for translocation velocities of human platelets: on plasma VWF, mean±s.e.m, n=4
Experimental: Ex vivo platelet adhesion studies. Experiments were performed in a parallel-plate flow chamber as previously described (Offermanns, S., et al., 2006). For studies involving plasma VWF, a polyclonal anti-VWF antibody (Dako) was absorbed overnight (4° C.) to a six well tissue culture plate. Subsequently, the plate was washed and non-specific interactions blocked by the addition of TBS containing 3% BSA, pH 7.4 (1 hour, 37° C.). Human or murine plasma obtained from heparinized whole blood was added and the plates placed at 37° C. for an additional 2 hours. Generation, purification, and surface-immobilization of recombinant VWF-A1 proteins was performed as previously described (Doggett, T. A. et al., 2002). Both human and murine VWF-A1 constructs consist of amino acid residues 1238 to 1471, with a single intra-disulfide bond formed between residues 1272 and 1458 and were generated in bacteria. Citrated whole blood (150 μl) collected via cardiac puncture from anesthetized homozygous VWF^1326R>H or WT mice or from venopuncture from human volunteers was perfused over the immobilized substrates at a wall shear rate of 1600 s^−1 for 4 minutes, followed by washing with Tyrode's buffer under the identical flow conditions. The number of platelets attached per unit area (0.07 mm^2) and translocation velocities were determined by off-line analysis (Image-Pro Plus, Media Cybernetics). For GPIb α inhibition studies, the function-blocking mAb 6D1 (20 μg/ml) or mAb SZ2 (20 μg/ml; Beckman Coulter, Brea, Calif.) was added to anticoagulated human blood for 30 minutes prior to use. Experiments were performed in triplicate on two separate days. An ELISA was used to ensure equivalent coating concentration of plasma and recombinant proteins (Denis, C. et al., 1998).

thrombus = conditions: maximal effective dose 50 mg/kg the day before and 2 hours prior; cited from earlier work
[3] = target: ADP receptor on murine platelets (Mus musculus, UniProt Q9CPV9); conditions: FIG. 46A
Experimental: (§1) Tail bleeding assay. […] For studies involving PLAVIX, animals received a 50 mg/kg oral dose of the drug the day before and 2 hours prior to the administration of human platelets.

murine αIIb β3 = murine αIIb β3 (Mus musculus, UniProt O54890+Q9QUM0); conditions: cited from earlier work
human platelets [4] = experiment: Tail bleeding assay, human platelet-induced hemostasis in homozygous VWF^1326R>H mice; assay type: in vivo, mouse; conditions: for human platelet-induced hemostatic clot formation: drug given to homozygous VWF^1326R>H mice receiving human platelets
Experimental: as §1
This assay provides an indirect measure of the ability of platelets and VWF to support hemostasis by interacting with the injured vessel wall. It also indirectly determines the function of multiple receptors and ligands on platelets that are required to form a hemostatic plug. […] It is performed by immersing the severed tip (10 mm) of the animal's tail in isotonic saline at 37° C. and monitoring the length of time required for bleeding to cease. Homozygous mutant mice will be infused with an equal volume of either saline or purified human platelets. Platelet specific antibodies or drugs will be administered as described above and their ability to prolong bleeding time evaluated.

αIIb β3 = target: T1, αIIb β3 (Homo sapiens, UniProt P05106+P08514); conditions: intravenous bolus 0.25 mg/kg, then 0.125 μg/kg/min; cited from earlier work
T1 construct: endogenous in cells; host or cells: platelets of treated patients

mouse platelets = experiment: Parallel plate flow system, WT mouse blood over immobilized plasma VWF of VWF HA1 mice; assay type: cell-based
Source text: WT mouse blood was then infused over the immobilized substrate.

human platelets [5] = experiment: Parallel plate flow system, human platelets over immobilized plasma VWF of VWF HA1 mice; assay type: cell-based
human platelets [6] = experiment: Optical aggregometry, human platelets resuspended in platelet poor plasma of VWF^R1326H or VWF^HA1 mice; assay type: cell-based
Experimental: Although the R1326H mutation in murine VWF can support human platelet mediated hemostasis and thrombosis, there still exists a major difference between the human and mouse A1 domains. Specifically, only the human form can be activated to bind to GPIb alpha on human platelets. Ristocetin is an antibiotic that was taken off the market due to its ability to cause von Willebrand factor to bind the platelet receptor GPIb alpha, so when ristocetin is added to normal blood, it causes platelet clumping. […] Thus, murine VWF bearing the majority of the human A1 domain functions in manner more closely to that in humans, making it a better biological platform for studying human platelet function and the effects of antiplatelet agents for use in human beings.

Chain of murine αIIb β3 (Q9QUM0 32-1033): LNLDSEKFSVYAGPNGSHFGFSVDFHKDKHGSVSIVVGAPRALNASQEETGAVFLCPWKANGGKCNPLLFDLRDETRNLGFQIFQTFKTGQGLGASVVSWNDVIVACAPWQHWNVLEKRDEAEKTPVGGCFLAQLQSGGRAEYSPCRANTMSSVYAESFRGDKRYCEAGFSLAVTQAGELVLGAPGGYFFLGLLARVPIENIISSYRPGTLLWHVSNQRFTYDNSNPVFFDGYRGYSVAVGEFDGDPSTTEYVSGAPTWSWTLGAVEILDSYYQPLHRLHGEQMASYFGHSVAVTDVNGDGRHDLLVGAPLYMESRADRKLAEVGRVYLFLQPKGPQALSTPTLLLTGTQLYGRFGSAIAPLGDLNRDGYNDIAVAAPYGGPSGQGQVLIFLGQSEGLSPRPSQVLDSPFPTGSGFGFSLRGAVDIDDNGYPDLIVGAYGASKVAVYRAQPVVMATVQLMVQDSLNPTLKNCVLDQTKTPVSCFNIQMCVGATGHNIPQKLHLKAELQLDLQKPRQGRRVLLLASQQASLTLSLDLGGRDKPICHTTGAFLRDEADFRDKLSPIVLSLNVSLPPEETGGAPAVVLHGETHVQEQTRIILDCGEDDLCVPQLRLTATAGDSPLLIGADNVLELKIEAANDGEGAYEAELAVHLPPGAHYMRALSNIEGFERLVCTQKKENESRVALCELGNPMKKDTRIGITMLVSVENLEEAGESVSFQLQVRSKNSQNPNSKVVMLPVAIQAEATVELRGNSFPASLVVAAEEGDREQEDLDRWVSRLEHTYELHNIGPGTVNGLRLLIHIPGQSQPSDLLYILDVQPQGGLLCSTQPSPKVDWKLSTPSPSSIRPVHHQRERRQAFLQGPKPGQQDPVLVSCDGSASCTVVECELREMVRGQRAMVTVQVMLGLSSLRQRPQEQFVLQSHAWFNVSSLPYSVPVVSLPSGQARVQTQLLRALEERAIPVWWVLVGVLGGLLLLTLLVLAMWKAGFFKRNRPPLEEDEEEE
Chain of murine αIIb β3 (O54890 26-787): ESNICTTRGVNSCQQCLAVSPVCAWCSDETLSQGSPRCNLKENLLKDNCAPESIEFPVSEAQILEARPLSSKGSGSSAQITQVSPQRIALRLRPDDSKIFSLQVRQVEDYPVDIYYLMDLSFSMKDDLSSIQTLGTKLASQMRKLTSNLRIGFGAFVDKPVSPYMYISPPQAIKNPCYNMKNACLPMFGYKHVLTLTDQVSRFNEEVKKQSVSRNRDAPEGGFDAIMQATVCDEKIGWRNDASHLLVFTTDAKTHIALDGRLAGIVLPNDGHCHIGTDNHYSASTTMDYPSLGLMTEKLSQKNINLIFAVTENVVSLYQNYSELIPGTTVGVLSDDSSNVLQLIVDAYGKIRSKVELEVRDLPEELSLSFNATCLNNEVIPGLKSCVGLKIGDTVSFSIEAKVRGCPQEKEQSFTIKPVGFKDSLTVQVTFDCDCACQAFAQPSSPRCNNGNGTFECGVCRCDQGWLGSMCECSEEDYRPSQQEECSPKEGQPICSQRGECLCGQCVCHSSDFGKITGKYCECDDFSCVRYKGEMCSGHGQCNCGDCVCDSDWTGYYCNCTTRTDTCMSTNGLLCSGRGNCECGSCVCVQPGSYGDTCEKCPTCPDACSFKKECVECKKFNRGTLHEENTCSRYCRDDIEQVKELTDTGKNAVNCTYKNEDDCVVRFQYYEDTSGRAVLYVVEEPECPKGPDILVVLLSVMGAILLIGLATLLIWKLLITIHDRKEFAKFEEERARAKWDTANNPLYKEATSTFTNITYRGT
Chain of ADP receptor on murine platelets (Q9CPV9 whole entry): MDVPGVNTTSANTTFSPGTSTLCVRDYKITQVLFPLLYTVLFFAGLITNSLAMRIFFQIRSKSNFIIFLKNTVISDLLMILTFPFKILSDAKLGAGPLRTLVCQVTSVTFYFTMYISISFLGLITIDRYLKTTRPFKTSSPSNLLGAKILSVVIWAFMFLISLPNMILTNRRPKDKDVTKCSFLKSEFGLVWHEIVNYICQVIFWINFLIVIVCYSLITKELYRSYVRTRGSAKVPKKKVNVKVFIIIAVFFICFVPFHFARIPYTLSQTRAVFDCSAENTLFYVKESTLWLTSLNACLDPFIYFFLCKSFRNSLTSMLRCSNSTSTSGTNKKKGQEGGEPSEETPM

thrombin
platelet aggregation ([1]; incubation of murine PRP with thrombin): > 90%

VWF^1326R>H: full-length murine plasma VWF containing the 1326R>H mutation
translocation velocities of human platelets (human platelets [2]): 3.5±0.1 μm/sec | human platelet accumulation on the surface-immobilized protein (human platelets [2]; shear rate 1600 s^−1): bound human platelets at levels comparable with its human counterpart

murine plasma VWF: plasma VWF of wild type mice
human platelet deposition as compared with same-species controls (human platelets [2]; human whole blood, shear rate 1600 s^−1): 10%

COC(=O)[C@H](c1ccccc1Cl)N1CCc2sccc2C1 [clopidogrel]
thrombus size and formation in mice (thrombus): reduce thrombus size and delay its formation | function of the ADP receptor on murine platelets [3]: can also block the function of the ADP receptor on murine platelets

native human plasma VWF: human plasma VWF
translocation velocities of human platelets (human platelets [2]): 3.2±0.1 μm/sec

abciximab
binding or disruption of function of murine αIIb β3 (murine αIIb β3): does not bind or disrupt the function of murine αIIb β3 | human platelet-induced hemostatic clot formation (human platelets [4]): completely disrupted | human platelet-induced hemostatic clot formation (human platelets [4]; listed as ReoPro): prevented the formation of a hemostatic plug | mean bleeding time (human platelets [4]; given 5 minutes after infusion of human platelets, bolus 0.25 mg/kg then 0.125 μg/kg/min): 579 s | duration of disruption of platelet function (αIIb β3): 24 to 36 h | αIIb β3 occupancy (αIIb β3): > 80%

plasma VWF containing the human A1 domain: mouse VWF containing the majority of the human A1 domain (amino acids 1240P to 1481G)
mouse platelet interactions with the immobilized protein (mouse platelets): could not support any significant interactions | human platelet interactions with the immobilized protein (human platelets [5]): could interact at levels observed for human plasma VWF

ristocetin
human platelet aggregation (human platelets [6]; plasma from VWF^HA1 mice): cause human platelet aggregation comparable to its human counterpart | human platelet aggregation (human platelets [6]; plasma from VWF^R1326H animals): such was not the case | murine platelet aggregation ([1]; about 1.0 mg/ml): no such effect; also recorded: had no effect
